In ChEMBL document CHEMBL1144098, “Laxifloranone, a new phloroglucinol derivative from Marila laxiflora” (J Nat Prod, 1999):
Converted amounts (≈) assume the structure as drawn. The source made the active and inactive calls. The calls are words filed in the database; no cut-off is given here.

Legend:
[1] = test system: Human immunodeficiency virus 1; experiment: Antiviral activity against HIV1 in human CEM-SS cells assessed as cytoprotection against virus-induced cytopathogenicity; type: functional
[2] = test system: Human immunodeficiency virus 1; experiment: Antiviral activity against HIV1 in human CEM-SS cells assessed inhibition of virus-induced cytopathic effects; type: functional, organism-based
[3] = Human immunodeficiency virus 1, CEM-SS

Row | EC50 [2, 3] [µg/mL] | IC50 [2, 3] [µg/mL] | SMILES | Activity [1] | Activity [2]
1 | – | – | CCOC(=O)NN(OC(=O)C[C@H](c1ccccc1)[C@@]12C(=O)[C@@](CC=C(C)C)(C[C@@H](CC=C(C)C)C1(C)C)C(=O)C(C(=O)CC(C)C)=C2O)C(=O)OCC | inactive | inactive
2 | 0.62 (≈ 1.1 µM) | 6.6 (≈ 11.7 µM) | CC(C)=CC[C@@H]1C[C@@]2(CC=C(C)C)C(=O)C(C(=O)CC(C)C)=C(O)[C@]([C@H](CC(=O)O)c3ccccc3)(C2=O)C1(C)C [LAXIFLORANONE] | 80% | –
